Assay results taken from patent publication US20200352991A1, “POLYMER FILMS WITH ANTIMICROBIAL AGENTS” (The Trustees of Columbia University in the City of New York, priority 2017, published 2020).

Experiments:
S. aureus = experiment: Rapid kill test, 15 second time kill; assay type: cell-based; conditions: 100 ul of 104 S. aureus culture, 15 second time kill
[1] = test system: P. aeruginosa (ATCC 15442); experiment: Zone of inhibition test of coated endotracheal tubes, modified Kirby-Bauer method; assay type: cell-based; conditions: coated endotracheal tube segments, 24 hours, ETT diameter (10 mm) is included
Description: Efficacy of the coated tubes was evaluated by zone of inhibition test against P. aeruginosa (ATCC 15442) after 24 hours.
Method: The anti-microbial efficacy of the coated endotracheal tube (ETT) was evaluated by zone of inhibition test against P. aeruginosa (ATCC 15442) according to the modified Kirby-Bauer method. Trypticase soy agar (TSA) plates were seeded with 0.3 mL of overnight grown bacterial culture diluted to 107 colony forming units (CFU) per mL.
Antimicrobial coated ETTs were cut into 0.5 cm segments and embedded vertically into the agar plate. Uncoated ETT segments were used as control. After 24 hours of incubation at 37° C., the diameters of zones of inhibition around the ETT segments, including the diameters of the ETT, were measured.

For `[H]/N=C(\N/C(=N/[H])NCCCCCCNC(=N)NC(=N)Nc1ccc(Cl)cc1)Nc1ccc(Cl)cc1` [Chlorhexidine (CHX, 0.3%), Chlorhexidine], the Log10 reduction (S. aureus) was 4.51 Log10 and the “Zone of inhibition against P. aeruginosa” value [1] was 20 mm.

For `CC(=O)N[C@@H](CS)C(=O)O` [N-acetyl cystein (NAC, 1%), N-acetyl cystein], the Log10 reduction (S. aureus) was 0.34 Log10 and the “Zone of inhibition against P. aeruginosa” value [1] was 0 mm.
